According to patent US10137130B2, “Methods of treatment of malignancies” (Celgene Corporation, priority 2016, dated 2018):

How the values were obtained:
2-HG plasma levels = experiment: Phase 1/2 study AG221-C-001: pharmacodynamic response (2-HG plasma levels); format: in vivo, human
Method: 2HG can be detected in a sample by the methods of PCT Publication No. WO 2011/050210 and US Publication No. US2012/0121515 hereby incorporated by reference in their entirety, or by analogous methods. In an exemplary method, 2HG can be detected in a sample by LC/MS. The sample is mixed 80:20 with methanol, and centrifuged at 3,000 rpm for 20 minutes at 4 degrees Celsius. The resulting supernatant can be collected and stored at −80 degrees Celsius prior to LC-MS/MS to assess 2-hydroxyglutarate levels. A variety of different liquid chromatography (LC) separation methods can be used. Each method can be coupled by negative electrospray ionization (ESI, −3.0 kV) to triple-quadrupole mass spectrometers operating in multiple reaction monitoring (MRM) mode, with MS parameters optimized on infused metabolite standard solutions. Metabolites can be separated by reversed phase chromatography using 10 mM tributyl-amine as an ion pairing agent in the aqueous mobile phase, according to a variant of a previously reported method (Luo et al. J Chromatogr A 1147, 153-64, 2007). One method allows resolution of TCA metabolites: t=0, 50% B; t=5, 95% B; t=7, 95% B; t=8, 0% B, where B refers to an organic mobile phase of 100% methanol. Another method is specific for 2-hydroxyglutarate, running a fast linear gradient from 50%-95% B (buffers as defined above) over 5 minutes. A Synergi Hydro-RP, 100 mm×2 mm, 2.1 μm particle size (Phenomonex) can be used as the column, as described above. Metabolites can be quantified by comparison of peak areas with pure metabolite standards at known concentration. Metabolite flux studies from ^13C-glutamine can be performed as described, e.g., in Munger et al. Nat Biotechnol 26, 1179-86, 2008. […]
Subjects in the dose escalation phase and Part 1 Expansion also will undergo PK/PD assessments over a 10-hour period on C1D15, C2D1, and C4D1. […] Available bone marrow biopsy samples also will be assessed for 2-HG and α-KG levels. […]

[1] = test system: rrAML with an IDH2 mutation; experiment: FLT3 mutation status and Compound 1 response in rrAML patients of the Example 1 trial (FoundationOne Heme panel, LabPMM PCR); format: in vivo, human
Method: A subset of the clinical samples from the trial described in Example 1 were analyzed at screening. Sample types included bone marrow, peripheral blood and mononuclear cells isolated from bone marrow or peripheral blood. DNAs were extracted from these samples and sequenced at Foundation Medicine (Heme Panel, see http://foundationone.com/learn.php) using next generation sequencing technique.
Overall response rate (ORR), the primary efficacy endpoint, is defined as the rate of responders including complete remission (CR), CR with incomplete platelet recovery (CRp), marrow CR (mCR) (morphologic leukemia-free state [MLFS] for subjects with AML), CR with incomplete hematologic recovery (CRi), and partial remission (PR). Other measures of clinical activity including complete remission rate (CRR), duration of remission/response, event-free survival, overall survival, and time to remission/response will be summarized.
FoundationOne Heme panel analysis was performed on 100 screening samples from rrAML patients in the trial described in Example 1. Sample types included peripheral blood and bone marrow.
Therefore, the lower frequency reported in the above study is likely due to lack of recruitment of patients with FLT3-ITD mutations.
Tables 8 provides a contingency table indicating lack of statistical significance for lower ORR observed in efficacy evaluable patients presenting with FLT3-ITD and Table 9 provides a contingency table indicating statistical significance of lower ORR seen in patients presenting with either FLT3-ITD or FLT3 point mutation (PM).

[2] = FLT3-ITD+ efficacy evaluable patients
[3] = FLT3-ITD+/PM+ patients (either FLT3-ITD or FLT3 point mutation)
[4] = FLT3-ITD− efficacy evaluable patients

CC(C)(O)CNc1nc(Nc2ccnc(C(F)(F)F)c2)nc(-c2cccc(C(F)(F)F)n2)n1 [COMPOUND 1, 2-methyl-1-[(4-[6-(trifluoromethyl)pyridin-2-yl]-6-{[2-(trifluoromethyl)pyridin-4-yl]amino}-1,3,5-triazin-2-yl)amino]propan-2-ol]
reduction in 2-HG plasma levels (2-HG plasma levels; by Day 1 of Cycle 2, subjects of AG221-C-001): sustained reduction | inhibition of 2-HG plasma levels (2-HG plasma levels; most subjects with R140Q mutation, all doses): up to 98% | exposure and inhibition of 2-HG in relation to dose (2-HG plasma levels; subjects with R172K mutation): Increasing dose is associated with higher exposure and inhibition of 2-HG | No Response (number of patients) [1, 2]: 3 | Response (number of patients) [1, 2]: 0 | ORR ([1]; FLT3-ITD+ patients): 0% | No Response (number of patients) [1, 3]: 9 | Response (number of patients) [1, 3]: 1 | ORR ([1]; FLT3-ITD+/PM+ patients (mFLT3)): 10.0% | No Response (number of patients) [1, 4]: 38 | Response (number of patients) [1, 4]: 33 | No Response (number of patients) ([1]; FLT3-ITD−/PM− patients): 42 | Response (number of patients) ([1]; FLT3-ITD−/PM− patients): 40 | Odds ratio (response, mFLT3 vs FLT3-ITD−/PM−) ([1]; Fisher's Exact test, p = 0.039): 0.117 | Odds ratio (response, FLT3-ITD+ vs FLT3-ITD−) ([1]; Fisher's Exact test, p = 0.249): 0.164
